# Experiment: CUPRAC assay for total antioxidants
# Settings: absorbance at 450 nm
# Protocol: The CUPRAC assay was utilized to determine the total antioxidant capacity. This assay relies on the electron donating capabilities of antioxidants to reduce the copper ion. The CUPRAC working solution consisted of 10 mM copper (II) chloride dihydrate, 1M ammonium acetate, and 7.5 mM neocuproine. 0.15 mL of the above three solutions were added to 0.15 mL of each sample and allowed to react for 30 minutes at room temperature, after which the absorbance was read at 450 nm in a Hitachi U-2001 spectrophotometer.
structure (smiles),measurement,value
O=C1O[C@H]([C@@H](O)CO)C(O)=C1O [ascorbic acid],total antioxidant activity (antioxidant value of standard curve),27±1.7 mg Ascorbic acid per mOD optical density
